Results taken from ChEMBL document CHEMBL2440076, “New triarylpyrazoles as broad-spectrum anticancer agents: design, synthesis, and biological evaluation” (Eur J Med Chem, 2013).

Legend:
Assay type in all cases: functional
SW-620 [1] = assay: Growth inhibition of human SW620 cells assessed as cell growth at 5X10'-8 M after 48 hrs by sulforhodamine B assay; conditions: SW-620, 48 h, read-out: Activity
A549 = assay: Growth inhibition of human A549/ATCC cells assessed as cell growth at 5X10'-7 M after 48 hrs by sulforhodamine B assay; conditions: A549, 48 h, read-out: Activity
UACC-257 = assay: Growth inhibition of human UACC257 cells assessed as cell growth at 5X10'-9 M after 48 hrs by sulforhodamine B assay; conditions: UACC-257, 48 h, read-out: Activity
NCI-H522 [2] = assay: Growth inhibition of human NCI-H522 cells assessed as cell growth at 5X10'-6 M after 48 hrs by sulforhodamine B assay; conditions: NCI-H522, 48 h, read-out: Activity
DU-145 = assay: Growth inhibition of human DU145 cells assessed as cell growth at 5X10'-5 M after 48 hrs by sulforhodamine B assay; conditions: DU-145, 48 h, read-out: Activity
SW-620 [3] = assay: Growth inhibition of human SW620 cells assessed as cell growth at 5X10'-9 M after 48 hrs by sulforhodamine B assay; conditions: SW-620, 48 h, read-out: Activity
NCI-H522 [4] = assay: Growth inhibition of human NCI-H522 cells assessed as cell growth at 5X10'-5 M after 48 hrs by sulforhodamine B assay; conditions: NCI-H522, 48 h, read-out: Activity
786-0 = assay: Growth inhibition of human 786-0 cells assessed as cell growth at 5X10'-8 M after 48 hrs by sulforhodamine B assay; conditions: 786-0, 48 h, read-out: Activity
Malme-3M = assay: Growth inhibition of human MALME-3M cells assessed as cell growth at 5X10'-7 M after 48 hrs by sulforhodamine B assay; conditions: read-out: Activity
MDA-MB-435 [5] = assay: Growth inhibition of human MDA-MB-435 cells assessed as cell growth at 5X10'-7 M after 48 hrs by sulforhodamine B assay; conditions: MDA-MB-435, 48 h, read-out: Activity
SN12C = assay: Growth inhibition of human SN12C cells assessed as cell growth at 5X10'-8 M after 48 hrs by sulforhodamine B assay; conditions: read-out: Activity
SK-MEL-2 [6] = assay: Growth inhibition of human SK-MEL-2 cells assessed as cell growth at 5X10'-9 M after 48 hrs by sulforhodamine B assay; conditions: SK-MEL-2, 48 h, read-out: Activity
HOP-92 = assay: Growth inhibition of human HOP92 cells assessed as cell growth at 5X10'-5 M after 48 hrs by sulforhodamine B assay; conditions: HOP-92, 48 h, read-out: Activity
NCI-H460 = assay: Growth inhibition of human NCI-H460 cells assessed as cell growth at 5X10'-9 M after 48 hrs by sulforhodamine B assay; conditions: NCI-H460, 48 h, read-out: Activity
KM12 [7] = assay: Growth inhibition of human KM12 cells assessed as cell growth at 5X10'-5 M after 48 hrs by sulforhodamine B assay; conditions: KM12, 48 h, read-out: Activity
SR [8] = assay: Growth inhibition of human SR cells assessed as cell growth at 5X10'-7 M after 48 hrs by sulforhodamine B assay; conditions: read-out: Activity
UACC-62 = assay: Growth inhibition of human UACC62 cells assessed as cell growth at 5X10'-6 M after 48 hrs by sulforhodamine B assay; conditions: UACC-62, 48 h, read-out: Activity
SF-539 = assay: Growth inhibition of human SF539 cells assessed as cell growth at 5X10'-8 M after 48 hrs by sulforhodamine B assay; conditions: SF-539, 48 h, read-out: Activity
HOP-62 = assay: Growth inhibition of human HOP62 cells assessed as cell growth at 5X10'-8 M after 48 hrs by sulforhodamine B assay; conditions: HOP-62, 48 h, read-out: Activity
KM12 [9] = assay: Growth inhibition of human KM12 cells assessed as cell growth at 5X10'-7 M after 48 hrs by sulforhodamine B assay; conditions: KM12, 48 h, read-out: Activity
IGROV-1 = assay: Growth inhibition of human IGROV1 cells assessed as cell growth at 5X10'-8 M after 48 hrs by sulforhodamine B assay; conditions: IGROV-1, 48 h, read-out: Activity
COLO 205 = assay: Growth inhibition of human COLO205 cells assessed as cell growth at 5X10'-8 M after 48 hrs by sulforhodamine B assay; conditions: COLO 205, 48 h, read-out: Activity
PC-3 = assay: Growth inhibition of human PC3 cells assessed as cell growth at 5X10'-9 M after 48 hrs by sulforhodamine B assay; conditions: PC-3, 48 h, read-out: Activity
T47D [10] = assay: Growth inhibition of human T47D cells assessed as cell growth at 5X10'-6 M after 48 hrs by sulforhodamine B assay; conditions: read-out: Activity
T47D [11] = assay: Growth inhibition of human T47D cells assessed as cell growth at 5X10'-9 M after 48 hrs by sulforhodamine B assay; conditions: read-out: Activity
SF-295 = assay: Growth inhibition of human SF295 cells assessed as cell growth at 5X10'-9 M after 48 hrs by sulforhodamine B assay; conditions: SF-295, 48 h, read-out: Activity
CAKI-1 = assay: Growth inhibition of human CAKI-1 cells assessed as cell growth at 5X10'-9 M after 48 hrs by sulforhodamine B assay; conditions: CAKI-1, 48 h, read-out: Activity
HCT-116 = assay: Growth inhibition of human HCT116 cells assessed as cell growth at 5X10'-6 M after 48 hrs by sulforhodamine B assay; conditions: HCT-116, 48 h, read-out: Activity
HL-60(TB) [12] = assay: Growth inhibition of human HL-60(TB) cells assessed as cell growth at 5X10'-5 M after 48 hrs by sulforhodamine B assay; conditions: HL-60, 48 h, read-out: Activity
SK-MEL-2 [13] = assay: Growth inhibition of human SK-MEL-2 cells assessed as cell growth at 5X10'-7 M after 48 hrs by sulforhodamine B assay; conditions: SK-MEL-2, 48 h, read-out: Activity
MCF7 = assay: Growth inhibition of human MCF7 cells assessed as cell growth at 5X10'-6 M after 48 hrs by sulforhodamine B assay; conditions: MCF7, 48 h, read-out: Activity
MDA-MB-435 [14] = assay: Growth inhibition of human MDA-MB-435 cells assessed as cell growth at 5X10'-9 M after 48 hrs by sulforhodamine B assay; conditions: MDA-MB-435, 48 h, read-out: Activity
SR [15] = assay: Growth inhibition of human SR cells assessed as cell growth at 5X10'-8 M after 48 hrs by sulforhodamine B assay; conditions: read-out: Activity
OVCAR-8 = assay: Growth inhibition of human OVCAR8 cells assessed as cell growth at 5X10'-7 M after 48 hrs by sulforhodamine B assay; conditions: OVCAR-8, 48 h, read-out: Activity
HL-60(TB) [16] = assay: Growth inhibition of human HL-60(TB) cells assessed as cell growth at 5X10'-8 M after 48 hrs by sulforhodamine B assay; conditions: HL-60, 48 h, read-out: Activity
MOLT-4 = assay: Growth inhibition of human MOLT4 cells assessed as cell growth at 5X10'-7 M after 48 hrs by sulforhodamine B assay; conditions: MOLT-4, 48 h, read-out: Activity
[17] = Growth inhibition of human NCI-ADR-RES cells assessed as cell growth at 5X10'-8 M after 48 hrs by sulforhodamine B assay; conditions: read-out: Activity

SMILES | growth at 0.05 µM (SW-620 [1]) [%] | growth at 0.5 µM (A549) [%] | growth at 0.005 µM (UACC-257) [%] | growth at 5 µM (NCI-H522 [2]) [%] | growth at 50 µM (DU-145) [%] | growth at 0.005 µM (SW-620 [3]) [%] | growth at 50 µM (NCI-H522 [4]) [%] | growth at 0.05 µM (786-0) [%] | growth at 0.5 µM (Malme-3M) [%] | growth at 0.5 µM (MDA-MB-435 [5]) [%] | growth at 0.05 µM (SN12C) [%] | growth at 0.005 µM (SK-MEL-2 [6]) [%] | growth at 50 µM (HOP-92) [%] | growth at 0.005 µM (NCI-H460) [%] | growth at 50 µM (KM12 [7]) [%] | growth at 0.5 µM (SR [8]) [%] | growth at 5 µM (UACC-62) [%] | growth at 0.05 µM (SF-539) [%] | growth at 0.05 µM (HOP-62) [%] | growth at 0.5 µM (KM12 [9]) [%] | further results
O=C(Nc1cccc(-n2cc(-c3ccncc3)c(-c3ccc(Cl)c(O)c3)n2)c1)Nc1cc(C(F)(F)F)cc(C(F)(F)F)c1 | 101 | 37 | 94 | -28 | -97 | 99 | -82 | 99 | 77 | 79 | 96 | 112 | -89 | 101 | -85 | 72 | -38 | 94 | 97 | 51 | growth at 0.05 µM (IGROV-1): 102%; growth at 0.05 µM (COLO 205): 103%; growth at 0.005 µM (PC-3): 90%; growth at 5 µM (T47D [10]): 20%; growth at 0.005 µM (T47D [11]): 97%; growth at 0.005 µM (SF-295): 92%; growth at 0.005 µM (CAKI-1): 97%; growth at 5 µM (HCT-116): -87%; growth at 50 µM (HL-60(TB) [12]): -4%; growth at 0.5 µM (SK-MEL-2 [13]): 101%; growth at 5 µM (MCF7): 4%; growth at 0.005 µM (MDA-MB-435 [14]): 98%; growth at 0.05 µM (SR [15]): 102%; growth at 0.5 µM (OVCAR-8): 52%; growth at 0.05 µM (HL-60(TB) [16]): 122%; growth at 0.5 µM (MOLT-4): 81%; growth at 0.05 µM [17]: 103%
COc1cc(-c2nn(-c3cccc(NC(=O)Nc4ccc(Cl)c(Cl)c4)c3)cc2-c2ccncc2)ccc1Cl | 102 | 60 | 98 | -18 | -1 | 97 | -26 | 102 | 82 | 84 | 94 | 109 | -39 | 102 | -50 | 78 | -56 | 85 | 97 | 70 | growth at 0.05 µM (IGROV-1): 103%; growth at 0.05 µM (COLO 205): 112%; growth at 0.005 µM (PC-3): 99%; growth at 5 µM (T47D [10]): 9%; growth at 0.005 µM (T47D [11]): 97%; growth at 0.005 µM (SF-295): 93%; growth at 0.005 µM (CAKI-1): 97%; growth at 5 µM (HCT-116): 6%; growth at 50 µM (HL-60(TB) [12]): 3%; growth at 0.5 µM (SK-MEL-2 [13]): 107%; growth at 5 µM (MCF7): 2%; growth at 0.005 µM (MDA-MB-435 [14]): 97%; growth at 0.05 µM (SR [15]): 105%; growth at 0.5 µM (OVCAR-8): 73%; growth at 0.05 µM (HL-60(TB) [16]): 114%; growth at 0.5 µM (MOLT-4): 78%; growth at 0.05 µM [17]: 106%
